Columns and labels:
[1] = test system: pERK level in H358 cells; test: pERK and ERK protein content assay in H358 cells (ELISA); assay type: cell-based; conditions: Homo sapiens, NCI-H358, pERK/ERK ratio vs DMSO group, compound 1 μM, 24 h, read-out: Inhibition rate (%)
Procedure: H358 cells were seeded in a 24-well plate. After one day of growth, a test compound (at a concentration of 1 μM) was added. After 24 h of action of the compound, the cells were lysed, and the cell lysate was transferred to a 96-well ELISA plate. The levels of pERK and ERK in the lysate were measured using an ELISA kit (abcam 176660). The ratio of pERK to ERK was calculated and compared with that of the DMSO group, and the percentage of inhibition of pERK activity by the compound was calculated.

[2] = test system: H358 cells; test: Antiproliferative activity against H358 cells (Cell Titer Glow, ultra-low attachment plate); assay type: cell-based; conditions: Homo sapiens, NCI-H358, 72 h, three days after addition of compound
Procedure: 2500 H358 cells were seeded in a 96-well ultra-low attachment plate (corning, 7007). After one day of growth, a serially diluted compound (a maximum concentration of 5 μM, 5-fold dilution, a total of five doses) was added. Three days after the addition of the compound, Cell Titer Glow (Promega, G9681) was added to evaluate pellet growth, and the IC50 value was calculated.

Row | Compound | IC50 [2] [nM] | inhibition at 1 µM [1] [%]
1 | C=CC(=O)N1CC2(CCN(c3nc(N4CC(CN5CCCC5)C4)nc4c(OCC(F)(F)F)c(-c5c(C)ccc6[nH]ncc56)c(C5CC5)cc34)CC2)C1 [Compound 7] | < 300 | > 90
2 | C=CC(=O)N1CC2(CCN(c3nc(N4CC(N5CCC6(CC6)C5)C4)nc4c(OCC(F)(F)F)c(-c5c(C)ccc6[nH]ncc56)c(C5CC5)cc34)CC2)C1 [Compound 35] | < 300 | > 90
3 | C=CC(=O)N1CCC2(CC1)CN(c1nc(N3CC(N4CCC5(CC5)C4)C3)nc3c(OCC(F)(F)F)c(-c4c(C)ccc5[nH]ncc45)c(C4CC4)cc13)C2 [Compound 115] | < 300 | > 90
4 | C=CC(=O)N1CC2(CCN(c3nc(N4CC(N5CC6(CC6)C5)C4)nc4c(OCC(F)F)c(-c5c(C)ccc6[nH]ncc56)c(C5CC5)cc34)CC2)C1 [Compound 98] | < 300 | > 90
5 | C=CC(=O)N1CC2(CCN(c3nc(N4CC(N5CC6(CC6)C5)C4)nc4c(OCC(F)(F)F)c(-c5c(F)cccc5F)c(C5CC5)cc34)CC2)C1 [Compound 113] | 300 to 1000 | 50 to 90
6 | C=CC(=O)N1CC2(CCN(c3nc(N4CCC(N5CC6(CC6)C5)CC4)nc4c(OCC(F)(F)F)c(-c5c(C)ccc6[nH]ncc56)c(C5CC5)cc34)CC2)C1 [Compound 38] | 300 to 1000 | > 90
7 | C=CC(=O)N1CC2(CCN(c3nc(N4CC(N5CC6(CC6)C5)C4)nc4c(O[C@@H](C)C(F)(F)F)c(-c5c(C)ccc6[nH]ncc56)c(C5CC5)cc34)CC2)C1 [Compound 99] | < 300 | > 90
8 | C=CC(=O)N1CC2(CCN(c3nc(N4CC(OC5CC5)C4)nc4c(OCC(F)(F)F)c(-c5c(C)ccc6[nH]ncc56)c(C5CC5)cc34)CC2)C1 [Compound 12] | < 300 | > 90
9 | C=CC(=O)N1CC2(CCN(c3nc(N4CC5(CCCN5C5CC5)C4)nc4c(OCC(F)(F)F)c(-c5c(C)ccc6[nH]ncc56)c(C5CC5)cc34)CC2)C1 [Compound 120] | < 300 | > 90
10 | C=CC(=O)N1CC2(CCN(c3nc(N4CC(O)C4)nc4c(OCC(F)(F)F)c(-c5c(C)ccc6[nH]ncc56)c(C5CC5)cc34)CC2)C1 [Compound 2] | < 300 | > 90
11 | C=CC(=O)N1CC2(CCN(c3nc(N4CC(N(C)CCCO)C4)nc4c(OCC(F)(F)F)c(-c5c(C)ccc6[nH]ncc56)c(C5CC5)cc34)CC2)C1 [Compound 23] | < 300 | > 90
12 | C=CC(=O)N1CC2(CCN(c3nc(N4CC(OC5CCN(C)CC5)C4)nc4c(OCC(F)(F)F)c(-c5c(C)ccc6[nH]ncc56)c(C5CC5)cc34)CC2)C1 [Compound 15] | < 300 | > 90
13 | C=CC(=O)N1CC2(CCN(c3nc(N4CC(CN(C)C)C4)nc4c(OCC(F)(F)F)c(-c5c(C)ccc6[nH]ncc56)c(C5CC5)cc34)CC2)C1 [Compound 1, 1-(7-(6-cyclopropyl-2-(3-((dimethylamino)methyl)azetidin-1-yl)-7-(5-methyl-1H-indazol-4-yl)-8-(2,2,2-trifluoroethoxy)quinazolin-4-yl)-2,7-diazaspiro[3.5]non-2-yl)prop-2-en-1-one] | < 300 | > 90
14 | C=CC(=O)N1CC2(CCN(c3nc(N4CC(N5CC[S+]([O-])CC5)C4)nc4c(OCC(F)(F)F)c(-c5c(C)ccc6[nH]ncc56)c(C5CC5)cc34)CC2)C1 [Compound 26] | 300 to 1000 | 50 to 90
15 | C=CC(=O)N1CC2(CCN(c3nc(N4CC(N5CC6(CC6)C5)C4)nc4c(OCC(F)(F)F)c(-c5c(C)ccc6[nH]ncc56)c(C=C)cc34)CC2)C1 [Compound 100] | < 300 | > 90
16 | C=CC(=O)N1CC2(CCN(c3nc(N4CC(N5CC6(CC6)C5)C4)nc4c(OCC(F)(F)F)c(-c5cc(O)cc6ccccc56)c(C5CC5)cc34)CC2)C1 [Compound 111] | 300 to 1000 | > 90
17 | C=CC(=O)N1CC2(CCN(c3nc(N4CC(C(=O)N5CCN(C)CC5)C4)nc4c(OCC(F)(F)F)c(-c5c(C)ccc6[nH]ncc56)c(C5CC5)cc34)CC2)C1 [Compound 46] | < 300 | > 90

Continued, in another order:

Row | IC50 [2] [nM] | Compound | inhibition at 1 µM [1] [%]
18 | 300 to 1000 | C=CC(=O)N1CC2(CCN(c3nc(N4CC(n5ccnc5)C4)nc4c(OCC(F)(F)F)c(-c5c(C)ccc6[nH]ncc56)c(C5CC5)cc34)CC2)C1 [Compound 41] | 50 to 90
19 | < 300 | C=CC(=O)N1CC2(CCN(c3nc(N4CC(CN(C)CCO)C4)nc4c(OCC(F)(F)F)c(-c5c(C)ccc6[nH]ncc56)c(C5CC5)cc34)CC2)C1 [Compound 4] | > 90
20 | < 300 | C=CC(=O)N1CC2(CCN(c3nc(N4CC(C)(CN5CCCC5)C4)nc4c(OCC(F)(F)F)c(-c5c(C)ccc6[nH]ncc56)c(C5CC5)cc34)CC2)C1 [Compound 64] | > 90
21 | < 300 | C=CC(=O)N1CC2(CCN(c3nc(N4CC5(CCCN5C(C)C)C4)nc4c(OCC(F)(F)F)c(-c5c(C)ccc6[nH]ncc56)c(C5CC5)cc34)CC2)C1 [Compound 117] | > 90
22 | < 300 | C=CC(=O)N1CC2(CCN(c3nc(N4CC(N5CC6(CC6)C5)C4)nc4c(OCC(F)(F)F)c(-c5c(O)cccc5F)c(C5CC5)cc34)CC2)C1 [Compound 112] | > 90
23 | < 300 | C=CC(=O)N1CC2(CCN(c3nc(N4CC(N5CC6(CC6)C5)C4)nc4c(OCC)c(-c5c(C)ccc6[nH]ncc56)c(C5CC5)cc34)CC2)C1 [Compound 97] | > 90
24 | < 300 | C=CC(=O)N1CC2(CCN(c3nc(N4CC(OCC5CN(C)C5)C4)nc4c(OCC(F)(F)F)c(-c5c(C)ccc6[nH]ncc56)c(C5CC5)cc34)CC2)C1 [Compound 19] | > 90
25 | 300 to 1000 | C=CC(=O)N1CC2(CCN(c3nc(N4CC(N5CC6(CCOCC6)C5)C4)nc4c(OCC(F)(F)F)c(-c5c(C)ccc6[nH]ncc56)c(C5CC5)cc34)CC2)C1 [Compound 33] | 50 to 90
26 | > 1000 | C=CC(=O)N1CC2(CCN(c3nc(N4CC(n5cncn5)C4)nc4c(OCC(F)(F)F)c(-c5c(C)ccc6[nH]ncc56)c(C5CC5)cc34)CC2)C1 [Compound 42] | 50 to 90
27 | < 300 | C=CC(=O)N1CC2(CCN(c3nc(N4CC(N5CC[C@H](O)C5)C4)nc4c(OCC(F)(F)F)c(-c5c(C)ccc6[nH]ncc56)c(C5CC5)cc34)CC2)C1 [Compound 45] | > 90
28 | < 300 | C=CC(=O)N1CC2(CCN(c3nc(N4CC(N5CC6(COC6)C5)C4)nc4c(OCC(F)(F)F)c(-c5c(C)ccc6[nH]ncc56)c(C5CC5)cc34)CC2)C1 [Compound 30] | > 90
29 | 300 to 1000 | C=CC(=O)N1CC2(CCN(c3nc(N4CC5(CCCCN5C)C4)nc4c(OCC(F)(F)F)c(-c5c(C)ccc6[nH]ncc56)c(C5CC5)cc34)CC2)C1 [Compound 75] | 50 to 90
30 | < 300 | C=CC(=O)N1CCC2(CC1)CN(c1nc(N3CC(N4CC5(CC5)C4)C3)nc3c(OCC(F)(F)F)c(-c4c(C)ccc5[nH]ncc45)c(C4CC4)cc13)C2 [Compound 102] | > 90
31 | < 300 | C=CC(=O)N1CC2(CCN(c3nc(N4CC(N5CC6(CC6)C5)C4)nc4c(OCC(F)(F)F)c(-c5c(F)ccc6[nH]cnc56)c(C5CC5)cc34)CC2)C1 [Compound 108] | > 90
